# From patent US6498149B1, “Natural antitumor or antiviral substances and use of the same” (Techno Seven Co., Ltd., priority 1997, dated 2002)
# Tests used:
# [1] = Physico-chemical properties (solubility, acid/base nature); assay type: physicochemical
# [2] = test system: Molt4 (human T cell leukemia cell line); experiment: Suppression of incorporation of 3H-thymidine into / proliferation of the Molt4 cell; assay type: cell-based; conditions: samples from single HPLC peaks, 7 μg/ml
# Description: The apoptosis inducing factor (AIF) is produced and released in the supernatant of the NS cell line culture. Thus, the AIF produced by the NS cell was separated and purified by the physico-chemical methods. The activity of AIF was measured by the ability of […] and the DNA fragmentation method. First, the supernatant of the culture of the NS cell line was adsorbed on a C18 column and eluted to separate the AIF. The crude extract was developed on a thin layer chromatography (TLC) plate, and the active fractions were isolated and purified by reverse phase high performance liquid chromatography (HPLC).
# The sample lyophilized from 50 ml of the supernatant of the NS cell line culture was subjected to chromatography on a C18 column (BONDELUTE), and the fraction retained in the column was separated and eluted with acetonitrile and methanol, and concentrated to dryness by evaporating the solvents with nitrogen gas.
# The fraction was further developed by TLC. That is to say, the solution of the materials separated on the C18 column in chloroform: methanol (1:1) was spotted on a thin layer and developed by chloroform: methanol: distilled water (60:40:8). […]
"discrimination of acidic, neutral and basic substances [1]",SMILES,solubility [1],suppression of incorporation of 3H-thymidine into the Molt4 cell [2]
basic substance,"CO[C@@H]1[C@H](O)[C@@H](CO)O[C@H]1n1cnc2c(O)ncnc21 [P5, 2′-O-methylinosine]","soluble in organic solvents such as methanol, dimethylsulfoxide and in water",
basic substance,"Cc1cn([C@@H]2O[C@H](CO)[C@@H](O)[C@H]2O)c(=O)[nH]c1=O [P2, ribothymidine]","soluble in organic solvents such as methanol, dimethylsulfoxide and in water",strong activity
basic substance,"CO[C@@H]1[C@H](O)[C@@H](CO)O[C@H]1n1cnc2c(=O)[nH]c(N)nc21 [P6, 2′-O-methylguanosine]","soluble in organic solvents such as methanol, dimethylsulfoxide and in water",

SMILES,"discrimination of acidic, neutral and basic substances [1]",solubility [1],suppression of incorporation of 3H-thymidine into the Molt4 cell [2]
"Cc1cn([C@H]2C[C@H](O)[C@@H](CO)O2)c(=O)[nH]c1=O [P4, thymidine]",basic substance,"soluble in organic solvents such as methanol, dimethylsulfoxide and in water",
